Values of other authors as cited in patent US8574562B2, “Microemulsion pharmaceutical composition comprising a macrolide immunosuppressant drug” (Novaliq GmbH, priority 2009, dated 2013).

Key:
[1] = methanol, ethanol, acetone, chloroform, ethyl acetate, diethyl ether
[2] = relative to ciclosporin
[3] = relative to ciclosporin; remark: listed apart in the source

C=CC[C@@H]1/C=C(\C)C[C@H](C)C[C@H](OC)[C@H]2O[C@@](O)(C(=O)C(=O)N3CCCC[C@H]3C(=O)O[C@H](/C(C)=C/[C@@H]3CC[C@@H](O)[C@H](OC)C3)[C@H](C)[C@@H](O)CC1=O)[C@H](C)C[C@@H]2OC [Tacrolimus]
solubility in organic solvents [1]: soluble
immunosuppressive activity in vitro, higher than that of ciclosporin [2]: 50-100 times
immunosuppressive activity in vivo, higher than that of ciclosporin [3]: 10-20 times
